In this assay the target is T1, Human recombinant full-length MNK1 protein (Homo sapiens, UniProt Q9BUB5).
T1 construct: Human recombinant full-length MNK1 protein; purchased Thermo PR9138A
The experiment in a line: MNK1 inhibitory activity assay (ADP-Glo in vitro kinase assay). Format: biochemical. The following applies: 10 concentration points. How it is done:
MNK1 Inhibitory Activity Assay: Evaluation of the effects of compounds of the invention on […] (MNK1) activity using in vitro kinase assays. The experimental methods are summarized as follows: The in vitro activity of MNK1 was determined by measuring the level of ADP produced in the kinase reaction using the ADP-Glo Kinase Assay Kit. The reaction buffer consisted of the following components: 50 mM HEPES, pH 7.5, 10 mM MgCl2, 1 mM EGTA, 0.01% Brij35. Human recombinant full-length MNK1 protein (Thermo, Cat. No. PR9138A) was diluted with a reaction buffer to a 3.13 ng/uL kinase solution. The substrate reaction solution consisted of a substrate diluted to 0.75 mg/ml in reaction buffer ([…], available from […] Domestic Company), 2250 uM ATP, the ADP-Glo reagent and kinase assay solution from Promega kit (Promega, V9102). […] If the compound IC50 value is very low, the initial concentration of the compound can be lowered. To a 384-well assay plate (Thermo, Cat. No. 264706) were added 1 uL of compound solution and 2 uL of MNK1 kinase solution. The mixture was mixed well and incubated for 30 minutes at room temperature; then 2 uL of substrate reaction solution was added, the reaction mixture was incubated for 120 minutes at room temperature. The reaction was terminated after an equal volume of 5uLADP-Glo solution was added, and the remaining ATP was completely consumed. After mixing for 60 minutes at room temperature, 10 ul of the kinase assay solution was added, and the mixture was uniformly mixed, and allowed to stand at room temperature for 40 minutes in the dark. The detection solution converts ADP into new ATP through coupled luciferase/luciferin, and ATP is converted into optical signal by Ultr-GloTM luciferase, which can be detected by Envision. The intensity of the light signal is proportional correlated with the amount of ADP produced in the kinase reaction, therefore, the activity of MNK1 kinase can be determined. In this experiment, the group without protein was used as a negative control (100% inhibition). The group with protein but without compounds was used as a positive control (0% inhibition).
For orientation: ADP-Glo first removes unused ATP, then detects ADP through luciferase.

In patent US20220289719A1, “HETEROCYCLIC COMPOUNDS AS MNK INHIBITORS” (NANJING INNOCARE PHARMA TECH CO., LTD., priority 2017, published 2022) one finds IC50 data, which are given here for 19 compounds.

pIC50: −log10 of the molar value. Where a name gives a salt, the structure may show the parent alone.

A word on the pIC50: it is the IC50 on a negative log10 scale, so that one unit is a factor of ten.

T1 sequence (Q9BUB5 whole entry): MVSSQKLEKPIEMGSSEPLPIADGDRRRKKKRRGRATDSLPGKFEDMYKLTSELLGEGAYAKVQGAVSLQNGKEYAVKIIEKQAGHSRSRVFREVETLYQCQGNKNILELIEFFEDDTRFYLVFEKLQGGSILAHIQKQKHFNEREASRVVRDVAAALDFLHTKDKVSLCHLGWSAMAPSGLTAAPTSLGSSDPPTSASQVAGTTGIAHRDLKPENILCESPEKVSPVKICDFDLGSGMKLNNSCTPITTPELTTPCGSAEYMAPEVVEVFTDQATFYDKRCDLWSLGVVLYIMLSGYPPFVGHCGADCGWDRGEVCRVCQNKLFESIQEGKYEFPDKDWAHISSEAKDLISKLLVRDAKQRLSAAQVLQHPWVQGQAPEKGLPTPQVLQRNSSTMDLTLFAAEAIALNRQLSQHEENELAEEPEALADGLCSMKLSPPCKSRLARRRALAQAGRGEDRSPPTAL

For the compound `COc1cc2[nH]ncc2cc1Nc1ncnc(N)c1C1=CCC(C(=O)N(C)C)CC1` (stereo not shown) [Compound 34, 4-(4-Amino-6-((6-methoxy-1H-indazol-5-yl)amino)pyrimidin-5-yl)-N,N-dimethylcyclohex-3-ene-1-carboxamide formate], the pIC50 is 6.35. With `CCOC(=O)c1c(N)ncnc1Nc1cc2cnn(C(=O)OC(C)(C)C)c2cc1OC` [Compound 35, 1-tert-Butoxycarbonyl-5-((6-amino-5-ethoxycarbonylpyrimidin-4-yl)amino)-6-methoxyindazole], the pIC50 was 7.49. As for `CCOC(=O)c1c(N)ncnc1Nc1cc2cn[nH]c2cc1OC` [Compound 36, 5-((6-Amino-5-ethoxycarbonylpyrimidin-4-yl)amino)-6-methoxy-1H-indazole dicarboxylate], the pIC50 was 8.11. With `CCOC(=O)c1c(NC(C)=O)ncnc1Nc1cc2cnn(C(=O)OC(C)(C)C)c2cc1OC` [Compound 37, 1-tert-Butoxycarbonyl-5-((6-(acetylamino)-5-ethoxycarbonylpyrimidin-4-yl)amino)-6-methoxyindazole], the pIC50 was 7.62. The result for `CCOC(=O)c1c(NC(C)=O)ncnc1Nc1cc2cn[nH]c2cc1OC` [Compound 38, 5-((6-(Acetylamino)-5-ethoxycarbonylpyrimidin-4-yl)amino)-6-methoxy-1H-indazole] reads 7.92; that for `COc1cc2[nH]ncc2cc1Nc1ncnc(N)c1C(=O)O` [Compound 39, 5-((6-Amino-5-carbonylpyrimidin-4-yl)amino)-6-methoxy-1H-indazole formate], 7.89; that for `COc1cc2[nH]ncc2cc1Nc1ncnc(N)c1C(=O)N(C)C` [Compound 40], 5.94. As for `COc1cc2[nH]ncc2cc1Nc1ncnc(N)c1C(=O)N1CCOCC1` [Compound 41], the pIC50 was 5.98.

For the compound `COc1cc2[nH]ncc2cc1Nc1ncnc(N)c1C#N` [Compound 42, 5-((6-Amino-5-cyanopyrimidin-4-yl)amino)-6-methoxy-1H-indazole], the negative-log IC50 (pIC50) was 6.22. Take `COc1cc2c(cnn2C(=O)OC(C)(C)C)cc1Nc1ncnc(N)c1-c1ccccn1` [Compound 43]: the pIC50 is 6.58. Under `COc1cc2[nH]ncc2cc1Nc1ncnc(N)c1-c1ccccn1` [Compound 44, 5-((6-amino-5-(pyridin-2-yl)pyrimidin-4-yl)amino-6-methoxy-1H-indazole formate] stands 6.00.

As for `COc1cc2[nH]ncc2cc1Nc1ncnc(N)c1F` [Compound 45, 5-((6-Amino-5-fluoropyrimidin-4-yl)amino)-6-methoxy-1H-indazole], the pIC50 is 7.45. Regarding `COc1cc2[nH]ncc2cc1Nc1ncnc(N)c1OC` [Compound 46, 5-((6-Amino-5-methoxypyrimidin-4-yl)amino)-6-methoxy-1H-indazole], the pIC50 was 7.31. The result for `COc1cc2[nH]ncc2cc1Nc1ncnc(N)c1C` [Compound 47, 5-((6-Amino-5-methylpyrimidin-4-yl)amino)-6-methoxy-1H-indazole] reads 7.10; that for `COc1cc2[nH]ncc2cc1Nc1ncnc(NC(=O)C2CC2)c1C` [Compound 48, 5-((6-(Cyclopropionamido)-5-methylpyrimidin-4-yl)amino)-6-methoxy-1H-indazole], 6.73; that for `COc1cc2[nH]ncc2cc1Nc1cc(NS(=O)(=O)C2CC2)ncn1` [Compound 49, 5-((6-(Cyclopropanesulfonylamino)pyrimidin-4-yl)amino)-6-methoxy-1H-indazole], 5.98. Under `COc1nc2[nH]ncc2cc1Nc1cc(NC(C)=O)ncn1` [Compound 50, 5-(6-(Acetamido)pyrimidin-4-yl) amino)-6-methoxy-1H-pyrazolo [3,4-b] pyridine formate] stands 6.60; under `COc1cc(Nc2cc3cn[nH]c3cc2OC)ncn1` [Compound 51, 5-(6-Methoxypyrimidin-4-yl) amino)-6-methoxy-1H-indazole formate], 6.70; under `COc1cc2[nH]ncc2cc1Nc1ncncc1OC` [Compound 52], 7.84.
